Source: ChEMBL document CHEMBL1127887, “Synthesis and in vitro cardiovascular activity of 4-aryl-2,3,3a,4-tetrahydro-1h-pyrrolo[2,1-c][1,4]benzothiazin-1-ones and 7-acetoxy-6-phenyl-7a,8,9,10-tetrahydropyrrolo [2,1,-d][1,5]benzothiazepin-10-one” (Bioorg Med Chem Lett, 1994)

Tests used:
[1] = target: T1, Voltage-gated L-type calcium channel (Rattus norvegicus, UniProt P22002+Q02485+P27732); assay: Displacement of [3H]nitrendipine from calcium channel receptors (CCRs); format: protein assay
Cavia porcellus [2] = organism: Cavia porcellus; assay: Negative inotropic potency on isolated guinea pig left atrium; format: functional, Cardiac atrium
Cavia porcellus [3] = organism: Cavia porcellus; assay: Calcium antagonist potency on K+ depolarized guinea pig aortic strips; format: functional; settings: Aorta
Cavia porcellus [4] = organism: Cavia porcellus; assay: Calcium antagonist activity on K+ depolarized guinea pig aortic strips at 10E-4 mol/L concentration was determined; format: functional; settings: Aorta
[5] = target: T1, Voltage-gated L-type calcium channel; assay: Inhibitory constant against calcium channel receptors (CCRs); format: protein assay
Cavia porcellus [6] = organism: Cavia porcellus; assay: Negative chronotropic activity on isolated guinea pig right atrium at 5x10E-5 mol/L concentration was determined; format: functional, Cardiac atrium
Cavia porcellus [7] = organism: Cavia porcellus; assay: Negative inotropic activity on isolated guinea pig left atrium at 10E-4 mol/L concentration was determined; format: functional, Cardiac atrium
[8] = target: T1, Voltage-gated L-type calcium channel; assay: Displacement of [3H]nitrendipine from calcium channel receptors (CCRs) from rat cortex homogenate
[9] = target: T1, Voltage-gated L-type calcium channel; assay: Inhibitory constant against calcium channel receptors (CCRs) from rat cortex homogenate

| Compound | IC50 [1] [nM] | ED50 (Cavia porcellus [2]) [uM l-1] | IC50 (Cavia porcellus [3]) [µM] | inhibition at 100 µM (Cavia porcellus [4]) [%] | Ki [5] [nM] | Decrease (Cavia porcellus [6]) [%] | Decrease (Cavia porcellus [7]) [%] | IC50 [8] [nM] | Ki [9] [nM] |
| --- | --- | --- | --- | --- | --- | --- | --- | --- | --- |
| COc1ccc(C2Sc3ccccc3N3C(=O)CCC23)cc1 (stereo unspecified) | 1800 | 1.2 | 16.6 | 32 | 675 | 39 | 60 | – | – |
| O=C1CCC2C(c3ccccc3)Sc3ccccc3N12 (stereo unspecified) | – | 0.23 | 20 | 37 | – | 20 | 66 | 0.78 | 0.29 |
| CC(=O)OC1=C(c2ccccc2)Sc2ccccc2N2C(=O)CCC12 (stereo unspecified) | 1550 | 1.1 | 32.4 | 26 | 581 | 27 | 96 | – | – |
| COc1ccc([C@@H]2Sc3ccccc3N(CCN(C)C)C(=O)[C@@H]2OC(C)=O)cc1 [DILTIAZEM] | – | 0.79 | 2.6 | 88 | – | 94 | 78 | – | – |
